Data published in PubChem BioAssay AID330 (DTP/NCI, 2004).
Where “and” joins values, the source holds several entries; their conditions need not be identical. Equal values may be shown once. Toxic doses and inconclusive results are not listed.

System: P388 leukemia ip, CD2F1 mice, survival T/C
Assay: NCI In Vivo Anticancer Drug Screen. Data for tumor model P388 Leukemia (intraperitoneal) in CD2F1 (CDF1) mice
Settings: endpoint: median survival time, higher = longer survival
Method in brief: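 Mice carrying the transplanted tumor received test compound or vehicle. Survival was recorded in each group, and the value is the treated-group measurement divided by that of the vehicle-treated control group.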

[1] = dose: 60.0 mg/kg/injection, schedule: Q01DX005 (ip), vehicle: saline with Tween-80
[2] = dose: 120.0 mg/kg/injection, schedule: Q01DX005 (ip), vehicle: saline with Tween-80
[3] = dose: 240.0 mg/kg/injection, schedule: Q01DX005 (ip), vehicle: saline with Tween-80
[4] = dose: 50.0 mg/kg/injection, schedule: Q01DX009 (ip), vehicle: saline with Tween-80
[5] = dose: 100.0 mg/kg/injection, schedule: Q01DX009 (ip), vehicle: saline with Tween-80
[6] = dose: 200.0 mg/kg/injection, schedule: Q01DX009 (ip), vehicle: saline with Tween-80
[7] = dose: 50.0 mg/kg/injection, schedule: Q01DX009 (ip), vehicle: Klucel (hydroxypropylcellulose) (HPC)
[8] = dose: 100.0 mg/kg/injection, schedule: Q01DX009 (ip), vehicle: Klucel (hydroxypropylcellulose) (HPC)

**Q.** Which results are given for `CC1(C)OC(=O)C=C[C@]2(C)[C@H]3CC[C@@]4(C)[C@H](c5ccoc5)C[C@H]5O[C@]54[C@]3(C)C(=O)[C@H](O)[C@@H]12`?
**A.** T/C (dose: 1.25 mg/kg/injection, schedule: Q04DX003 (ip), vehicle: Klucel (hydroxypropylcellulose) (HPC)): 91 % of control; T/C (dose: 2.5 mg/kg/injection, schedule: Q04DX003 (ip), vehicle: Klucel (hydroxypropylcellulose) (HPC)): 96 % of control; T/C (dose: 5.0 mg/kg/injection, schedule: Q04DX003 (ip), vehicle: Klucel (hydroxypropylcellulose) (HPC)): 94 % of control; T/C (dose: 10.0 mg/kg/injection, schedule: Q04DX003 (ip), vehicle: Klucel (hydroxypropylcellulose) (HPC)): 98 % of control

**Q.** Which results are given for `O=C1NC2(CCCCC2)C(=O)N1CCCCCN(CCCl)CCCl`?
**A.** T/C (dose: 1.5 mg/kg/injection, schedule: Q01DX005 (ip), vehicle: saline): 111 % of control; T/C (dose: 3.0 mg/kg/injection, schedule: Q01DX005 (ip), vehicle: saline): 119 % of control; T/C (dose: 40.0 mg/kg/injection, schedule: Q01DX005 (ip), vehicle: saline): 160 % of control

**Q.** `CC1(C)C2CCC(C2)C1OC(=O)c1ccccc1C(=O)O` (centres undefined) was tested. Which T/C [1] did it give?
**A.** The T/C was 99 % of control.

**Q.** What about the T/C [2] of the same compound?
**A.** Its T/C is 98 % of control.

**Q.** What about the T/C [3] of the same compound?
**A.** The T/C was 104 % of control.

**Q.** What does the source list for `COC(=O)[C@@]12OC[C@]34[C@H]([C@@H](O)[C@@H]1O)[C@@]1(C)CC(=O)C(O)=C(C)[C@@H]1C[C@H]3OC(=O)[C@H](OC(=O)C(Cc1ccccc1)NC(=O)OC(C)(C)C)[C@@H]24` (some centres undefined)?
**A.** T/C (dose: 125.0 micrograms/kg/injection, schedule: Q01DX005 (ip), vehicle: Klucel (hydroxypropylcellulose) (HPC)): 113 % of control; T/C (dose: 250.0 micrograms/kg/injection, schedule: Q01DX005 (ip), vehicle: Klucel (hydroxypropylcellulose) (HPC)): 100 % of control; T/C (dose: 500.0 micrograms/kg/injection, schedule: Q01DX005 (ip), vehicle: Klucel (hydroxypropylcellulose) (HPC)): 116 % of control; T/C (dose: 1000.0 micrograms/kg/injection, schedule: Q01DX005 (ip), vehicle: Klucel (hydroxypropylcellulose) (HPC)): 114 % of control

**Q.** With `Cc1cc(C)c2c(=O)n(C)c(=O)n(C)c2n1` as the compound, how does the T/C [4] read?
**A.** Its T/C is 89 % of control.

**Q.** And the T/C [5]?
**A.** Its T/C is 94 % of control.

**Q.** What about the T/C [6] of the same compound?
**A.** Its T/C is 103 % of control.

**Q.** `O=S1(=O)CC(N2CCCCC2)C2=C(O1)c1ccccc1N(c1ccccc1)C2` (centres undefined) was tested. Which T/C [4] did it give?
**A.** The T/C was 97 % of control.

**Q.** What about the T/C [5] of the same compound?
**A.** Its T/C is 96 % of control.

**Q.** What about the T/C [6] of the same compound?
**A.** The T/C was 97 % of control.

**Q.** With `COc1c(C(C)C)cc2c(c1OC)C13CCCC(C)(C)C1C(OC3=O)C2NC(=O)CCN(C)C` (centres undefined) as the compound, how does the T/C (dose: 25.0 mg/kg/injection, schedule: Q01DX009 (ip), vehicle: Klucel (hydroxypropylcellulose) (HPC)) read?
**A.** The T/C was 97 % of control.

**Q.** What about the T/C [7] of the same compound?
**A.** Its T/C is 98 % of control.

**Q.** What about the T/C [8] of the same compound?
**A.** Its T/C is 90 % of control.

**Q.** With `CCOC(=O)C1(n2[nH]c(=O)n(-c3ccccc3)c2=O)CC(C)(C)OC1=O` (centres undefined) as the compound, how does the T/C [7] read?
**A.** The T/C was 106 % of control.

**Q.** What about the T/C [8] of the same compound?
**A.** Its T/C is 98 % of control.

**Q.** What about the T/C (dose: 200.0 mg/kg/injection, schedule: Q01DX009 (ip), vehicle: Klucel (hydroxypropylcellulose) (HPC)) of the same compound?
**A.** Its T/C is 98 % of control.

**Q.** How did the T/C (dose: 50.0 mg/kg/injection, schedule: Q01DX005 (ip), vehicle: saline with Tween-80) turn out when `FC(F)(F)COP(c1ccccc1)c1ccccc1` was run?
**A.** Its T/C is 113 % of control.

**Q.** And the T/C (dose: 100.0 mg/kg/injection, schedule: Q01DX005 (ip), vehicle: saline with Tween-80)?
**A.** The T/C was 111 % of control.

**Q.** What about the T/C (dose: 200.0 mg/kg/injection, schedule: Q01DX005 (ip), vehicle: saline with Tween-80) of the same compound?
**A.** Its T/C is 114 % of control.

**Q.** What does the source list for `CCOC(=O)/C=C(\C)C(F)(F)F`?
**A.** T/C (dose: 15.0 mg/kg/injection, schedule: Q01DX005 (ip), vehicle: saline with Tween-80): 95 % of control; T/C (dose: 30.0 mg/kg/injection, schedule: Q01DX005 (ip), vehicle: saline with Tween-80): 100 % of control and 103 % of control; T/C [1]: 98 % of control and 104 % of control and 94 % of control; T/C [2]: 100 % of control and 101 % of control; T/C [3]: 106 % of control and 111 % of control

**Q.** What does the source list for `CCCCCNC(=O)OCc1c(COC(=O)NCCCCC)c(-c2ccc(Cl)c(Cl)c2)n2c1CCC2`?
**A.** T/C (dose: 6.25 mg/kg/injection, schedule: Q01DX009 (ip), vehicle: distilled water + Tween-80): 113 % of control; T/C (dose: 12.5 mg/kg/injection, schedule: Q01DX009 (ip), vehicle: distilled water + Tween-80): 101 % of control and 110 % of control; T/C (dose: 25.0 mg/kg/injection, schedule: Q01DX009 (ip), vehicle: distilled water + Tween-80): 108 % of control and 116 % of control; T/C (dose: 100.0 mg/kg/injection, schedule: Q01DX009 (ip), vehicle: distilled water + Tween-80): 165 % of control

**Q.** Which results are given for `CCCC[n+]1c(/C=C\c2c(OC)cc(OC)cc2OC)ccc2ccccc21`?
**A.** T/C (dose: 0.19 mg/kg/injection, schedule: Q01DX009 (ip), vehicle: Klucel (hydroxypropylcellulose) (HPC)): 115 % of control; T/C (dose: 0.39 mg/kg/injection, schedule: Q01DX009 (ip), vehicle: Klucel (hydroxypropylcellulose) (HPC)): 115 % of control and 122 % of control; T/C (dose: 0.78 mg/kg/injection, schedule: Q01DX009 (ip), vehicle: Klucel (hydroxypropylcellulose) (HPC)): 105 % of control

**Q.** Which T/C (dose: 50.0 mg/kg/injection, schedule: Q01DX009 (ip), vehicle: suspension in saline) does the source give for `O=C(O)c1cc2cccc([N+](=O)[O-])c2[se]1` here?
**A.** Its T/C is 106 % of control.

**Q.** And the T/C (dose: 100.0 mg/kg/injection, schedule: Q01DX009 (ip), vehicle: suspension in saline)?
**A.** Its T/C is 96 % of control.

**Q.** What about the T/C (dose: 200.0 mg/kg/injection, schedule: Q01DX009 (ip), vehicle: suspension in saline) of the same compound?
**A.** The T/C was 113 % of control.
